Values of other authors in patent US20130177646A1, “Solid Nicotine-Comprising Dosage Form with Reduced Organoleptic Disturbance” (priority 2012, published 2013).

Settings: smoking a cigarette

For CN1CCCC1c1cccnc1 (stereo not shown) [nicotine], which “time for nicotine to reach the brain after inhalation” value is on record?
Its value is “around ten”.
